Measurements from PMC11536340, “A Dynamic Loop in Halohydrin Dehalogenase HheG Regulates Activity and Enantioselectivity in Epoxide Ring Opening” (ACS Catalysis, 2024).
Read-outs that look alike come from different tables or passages of the source.

Biological target: T1, HheG (Ilumatobacter coccineus, UniProt Z9P531QQL2, M65F, form not given)
T1 construct: homotetramer
T1 sequence (Z9P531QQL2 21-282 M65F): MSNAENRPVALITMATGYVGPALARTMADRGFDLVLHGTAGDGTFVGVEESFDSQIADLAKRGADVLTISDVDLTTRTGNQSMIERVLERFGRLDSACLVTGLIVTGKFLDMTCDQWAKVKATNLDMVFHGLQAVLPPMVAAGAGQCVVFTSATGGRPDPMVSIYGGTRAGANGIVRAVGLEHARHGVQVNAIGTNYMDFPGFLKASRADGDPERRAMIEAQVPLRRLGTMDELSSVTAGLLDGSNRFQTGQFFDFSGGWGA
Test: BTB (bromothymol blue) pH-indicator assay, initial rates, Hill fit
Type: biochemical
Details: 2 mM MOPS pH 7.0
Excerpt: BTB (bromothymol blue) pH-indicator assay, initial rates, Hill fit on HheG

Row | Km (azide fixed at 60 mM, Hill coefficient n 3.33 ± 0.27, read-out: cyclohexene oxide / K50) [mM] | Structure (SMILES) | Km (cyclohexene oxide fixed at 100 mM, Hill coefficient n 3.94 ± 0.29, read-out: azide / K50) [mM]
1 |  | [N-]=[N+]=[N-] [azide] | 10.1 ± 0.21
2 | 28 ± 0.64 | C1CCC2OC2C1 (centres unmarked) [compound 1, cyclohexene oxide] | 
